Test: Glutathione-peroxidase-like activity, reaction rates by the method of A. Wendel
Type: biochemical
Details: relative to S-(2-phenylcarbamoyl-phenylselenyl) glutathione, taken as 100%; tert-butylhydroperoxide; in vitro
Method: The measuring of the glutathione peroxidase-like activity is carried out by the method of A. Wendel (A. Wendel, Methods in Enzymology, vol. 77, 325-333 (1981)). In this experiment, the reaction of the co-substrate nicotine […]-dinucleotide-phosphate is measured. The reducing agent in this case is not glutathione, but the […] containing aminoacid which has been used for the synthesis of the respective compounds. […] In in vitro-experiments, the catalysis of the peroxidase destruction has been examined. It was found, that the compounds of the present invention can replace the glutathioneperoxidase. [drawing 5] The reaction rates were measured by the method of A. Wendel (A. Wendel, Methods in Enzymology, vol. 77, pages 325-333 (1981)).
In the case of `N[C@@H](CS[Se]c1ccccc1C(=O)NCc1ccccc1)C(=O)O` [S-(2-Benzylcarbamoyl-phenylselenyl)-L-cysteine], the “catalytic activity (%)” value is reported as 56%. In the case of `NC(CCC(=O)NC(CS[Se]c1cc(F)ccc1C(=O)Nc1ccccc1)C(=O)NCC(=O)O)C(=O)O` [S-(2-Phenylcarbamoyl-5-fluoro-phenylselenyl)-L-glutathione], the “catalytic activity (%)” value is reported as 92%. With `N[C@@H](CS[Se]c1ccccc1C(=O)Nc1ccccc1)C(=O)O` [S-(2-Phenylcarbamoyl-phenylselenyl)-L-cysteine] the “catalytic activity (%)” value was 210%. With `N[C@@H](CCC(=O)N[C@@H](CS[Se]c1ccccc1C(=O)Nc1ccccc1)C(=O)NCC(=O)O)C(=O)O` [S-(2-Phenylcarbamoyl-phenylselenyl)-L-glutathione] the “catalytic activity (%)” value was 100%. With `CC(=O)N[C@@H](CS[Se]c1ccccc1C(=O)Nc1ccccc1)C(=O)O` [S-(2-Phenylcarbamoyl-phenylselenyl)-N-acetyl-L-cysteine] the “catalytic activity (%)” value was 40%. For `NC(CCC(=O)NC(CS[Se]c1cc(Cl)ccc1C(=O)Nc1ccccc1)C(=O)NCC(=O)O)C(=O)O` [S-(2-phenylcarbamoyl-5-chlor-phenylselenyl)-L-glutathione], the “catalytic activity (%)” value was 99%. For `COc1ccc(C(=O)Nc2ccccc2)c([Se]SCC(NC(=O)CCC(N)C(=O)O)C(=O)NCC(=O)O)c1` [S-(2-phenylcarbamoyl-5-methoxy-phenylselenyl)-L-glutathione], the “catalytic activity (%)” value was 63%. For `COc1cccc(C(=O)Nc2ccccc2)c1[Se]SC[C@H](N)C(=O)O` [S-(2-phenylcarbamoyl-6-methoxy-phenylselenyl)-L-cysteine], the “catalytic activity (%)” value was 440%. In the case of `COc1cccc(C(=O)Nc2ccccc2)c1[Se]SCC(NC(=O)CCC(N)C(=O)O)C(=O)NCC(=O)O` [S-(2-phenylcarbamoyl-6-methoxy-phenylselenyl)-L-glutathione], the “catalytic activity (%)” value is reported as 225%. With `CC(C)(S[Se]c1ccccc1C(=O)Nc1ccccc1)[C@@H](N)C(=O)O` [S-(2-phenylcarbamoyl-phenylselenyl)-D-penicillamine] the “catalytic activity (%)” value was 25%. With `COc1ccccc1NC(=O)c1ccccc1[Se]SCC(NC(=O)CCC(N)C(=O)O)C(=O)NCC(=O)O` [S--[2-(2-methoxyphenylcarbamoyl)-phenylselenyl]-L--glutathione] the “catalytic activity (%)” value was 37%. With `NC(CCC(=O)NC(CS[Se]c1ccccc1C(=O)Nc1ccccc1Cl)C(=O)NCC(=O)O)C(=O)O` [S-[2-(2-chlorphenylcarbamoyl)-phenylselenyl]-L-glutathione] the “catalytic activity (%)” value was 39%. In the case of `N[C@@H](CCC(=O)N[C@@H](CS[Se]c1ccccc1C(=O)Nc1ccc(Cl)c(Cl)c1)C(=O)NCC(=O)O)C(=O)O` [S-[2-(3,4-Dichlorophenylcarbamoyl)-phenylselenyl]-L-glutathione], the “catalytic activity (%)” value is reported as 21%. For `NC(CCC(=O)NC(CS[Se]c1ccccc1C(=O)Nc1cccc(F)c1)C(=O)NCC(=O)O)C(=O)O` [S-[2-(3-fluorophenylcarbamoyl)-phenylselenyl]-L-glutathione], the “catalytic activity (%)” value was 113%. For `NC(CCC(=O)NC(CS[Se]c1ccccc1C(=O)Nc1ccc(Cl)cc1)C(=O)NCC(=O)O)C(=O)O` [S-[2-(4-Chlorophenylcarbamoyl)-phenylselenyl]-L-glutathione], the “catalytic activity (%)” value was 116%. In the case of `COc1ccc(NC(=O)c2ccccc2[Se]SCC(NC(=O)CCC(N)C(=O)O)C(=O)NCC(=O)O)cc1` [S-[2-(4-Methoxyphenylcarbamoyl)-phenylselenyl]-L-glutathione], the “catalytic activity (%)” value is reported as 124%. In the case of `CC(=O)N[C@@H](CS[Se]c1ccccc1C(=O)Nc1ccc(F)cc1)C(=O)O` [S-[2-(4-fluorophenylcarbamoyl)-phenylselenyl]-N-acetyl-L-cysteine], the “catalytic activity (%)” value is reported as 61%. With `NC(CCC(=O)NC(CS[Se]c1ccccc1C(=O)Nc1ccc([N+](=O)[O-])cc1)C(=O)NCC(=O)O)C(=O)O` [S-[2-(4-nitrophenylcarbamoyl)-phenylselenyl]-L-glutathione] the “catalytic activity (%)” value was 121%. With `NC(CCC(=O)NC(CS[Se]c1ccccc1C(=O)Nc1ccc(C(F)(F)F)cc1)C(=O)NCC(=O)O)C(=O)O` [S-[2-(4-trifluormethylphenylcarbamoyl)-phenylselenyl]-L-glutathione] the “catalytic activity (%)” value was 49%.

Test: as above
Type: biochemical
Details: 1 millimolar concentration of glutathione with tert-butylhydroperoxide
In the case of `N[C@@H](CCC(=O)N[C@@H](CS[Se]c1ccccc1C(=O)Nc1ccccc1)C(=O)NCC(=O)O)C(=O)O` [S-(2-Phenylcarbamoyl-phenylselenyl)-L-glutathione], the reaction rate is reported as 1,17×10^6 units per mol.

— US4618669A, “S-(carbamoyl-phenylselenyl) derivatives of glutathione and of aminomercaptocarboxylic acids” (A. Nattermann & Cie GmbH, priority 1984, dated 1986)
